Earlier results, collected in patent US20190298786A1, “EXTRACTS OF SAUDI ARABIAN HERBAL PLANTS, ANTI-CANCER METHOD USING SUCH EXTRACTS, AND CYTOLOGICAL PROFILING USING AUTOMATED HIGH-CONTENT IMAGING TECHNIQUE” (King Abdullah University of Science and Technology, priority 2016, published 2019).
Values after ≈ are worked out from the molar mass of the structure shown.

Tests used:
[1] = system: human cervical cancer (HOG-1) cell; settings: HOG-1 cells, different concentrations

| SMILES | IC50 (cytotoxic effects) (CasKi cells) [µg/mL] | IC50 (cytotoxic effects) (KB cells) [µg/mL] | IC50 (cytotoxic effects) (MCF7 cells) [µg/mL] | effect on cell growth and DNA synthesis [1] |
| --- | --- | --- | --- | --- |
| CC(C)(C)c1ccc(O)c(C(C)(C)C)c1 [2,4-ditert-butylphenol] | 4.5 (≈ 21.8 µM) | 0.81 (≈ 3.93 µM) | 5.75 (≈ 27.9 µM) |  |
| CCCCCCCCCCCCCCCCCC(=O)O [stearic acid, Stearic acid] |  |  |  | inhibited |
